# Tests used:
# [1] = test system: C. albicans strain DAY185; test: in vitro antifungal activity (MIC) in the co-inoculation assay, turbidity read visually; format: cell-based
# Description: (§1) The procedure for the co-inoculation antifungal compound screen were conducted as previously described (Okoli et al., PLoS ONE, 4:e7025 (2009); Tampakakis et al., Nat Protocols, 3:1925-1931 (2008)), using the C. albicans strain DAY185 (Davis et al., Infect Immun, 68:5953-5959 (2000)) and the C. elegans glp-4;sek-1 double mutant.
# The determination of the lowest concentration of the selected compounds showing in vitro antifungal activity was accomplished by following the steps detailed in the co-inoculation assay, using two-fold serial dilutions of the test compounds.
# C. albicans = test: C. elegans-C. albicans co-inoculation assay, nematode survival; format: in vivo
# Description: as §1
# (§2) This assay allows simultaneous assessment of a compound's potential toxicity and the ability to promote the survival of the nematode in the presence of C. albicans, including modes of action not traditionally considered in antifungal assays such as impeding a fungal virulence factor or promoting host immune response. We performed a screen of 2,560 natural products representing a fraction of the Analyiticon Discovery compound collection (ac-discovery.com) housed at the Broad Institute of Harvard and MIT (Cambridge, Mass.). […] These natural products identified in the primary screen were retested and confirmed (FIG. 1; Table 1). […] Moreover, although the antifungal effects of some of these saponins have been reported (Sata et al., Biosci Biotechnol Biochem, 62:1904-1911 (1998); Ohtani et al., Phytochem, 33:83-86 (1993)), their efficacy against Candida spp. has not been studied.
# After confirmation of these hits, dose response experiments were conducted to determine the concentration that provided maximum nematode survival. The compounds conferred a range of nematode survival from 27% (compound A6) to 93% (compounds A2, A7, A24, and A25), however, with the exception of A6, all compounds conferred a nematode survival over 65% (FIG. 1).
# sheep erythrocytes = test: hemolysis of sheep erythrocytes; format: cell-based; settings: 100 μg/mL
# Description: The cytotoxicity for the identified compounds was confirmed as previously described (Breger et al., PLoS Pathog, 3:e18 (2007); Moy et al., Proc Natl Acad Sci USA, 103:10414-10419 (2006)). Hemolysis of sheep erythrocytes (Rockland Immunochemicals) was monitored on a spectrophotometer at A540 with the two natural products A16 and A19 (100 μg/mL) in 2% DMSO. Triton X-100 and DMSO were used as controls.
# C. elegans = test: toxicity to the nematode in dose response experiments; settings: dose response experiments, higher concentrations
# Description: as §2
# Representatives of the saponins family are able to disrupt cellular membranes and the lytic activity on erythrocytes has been used as an assay for some saponins Francis et al., British Journal of Nutrition, 88:587-605 (2002)). This property is derived from the affinity of some saponins for binding cholesterol forming insoluble pores composed of the sterol and saponins (Bangham et al., Nature, 196:952-953(1962); Glauert et al., Nature, 196:953-955 (1962)). […] The dose-response experiments previously used to determine the EC50 and approximate the MIC can also indicate if the saponins maybe toxic to C. elegans and potentially to mammalian cells.
# C. albicans biofilm = test: biofilm formation on silicone pads (dry mass); format: cell-based; settings: 20 μg/mL (below the MIC), compared with caspofungin
# Description: The minimal inhibitory concentration (MIC) was determined for strains DAY185, 98-145, 95-120 (White et al., Antimicrob Agents Chemother, 46:1704-1713 (2002)), and A15-10 (Garcia-Effron et al., Antimicrob Agents Chemother, 53:112-122 (2009)) spectrophotometrically using RPMI 1640 media (Mediatech, Inc.) following the standard CLSI microdilution protocol M27-A (National Committee for Clinical Laboratory Standards, Reference method for broth dilution susceptibility testing of yeasts. Tentative standard M27-A, Villanova, Pa. (1995)). Biofilm assays using identified compounds were conducted as previously described (Richard et al., Eukaryot Cell, 4:1493-1502 (2005)). The biofilm dry mass was determined by drying the silicone squares in a chemical hood, and weighing the resulting biofilm mass subtracting the previously weighed mass of the silicone square. […]
# Caspofungin (Merck) served as a known antifungal compound control. In vitro hyphal inhibition was assessed by incubation of DAY185 in RPMI 1640 media at 37° C. […] The ability of the antifungal compound A16, at either 2 or 4 μg/mL, to induce osmotic stress was assessed using DAY185 grown in a 96 well microtiter plate containing RPMI 1640 media and NaCl, ranging in concentrations from 0-2 M in 0.25 M increments. The growth of the fungus was measured spectrophotometrically after 48 hours of growth at 35° C.
# C. albicans strains = test: MIC by standard CLSI microdilution protocol M27-A; format: cell-based
# Description: Using the standard Clinical and Laboratory Standards Institute (CLSI) procedure, the in vitro MIC of these two compounds was determined on the following C. albicans strains: DAY185 (the standard strain used throughout the screen), two fluconazole-resistant strains of C. albicans, and an echinocandin-resistant strain of C. albicans (Table 2).
# The minimal inhibitory concentration (MIC) was determined for strains DAY185, 98-145, 95-120 (White et al., Antimicrob Agents Chemother, 46:1704-1713 (2002)), and A15-10 (Garcia-Effron et al., Antimicrob Agents Chemother, 53:112-122 (2009)) spectrophotometrically using RPMI 1640 media (Mediatech, Inc.) following the standard CLSI microdilution protocol M27-A (National Committee for Clinical Laboratory Standards, Reference method for broth dilution susceptibility testing of yeasts. Tentative standard M27-A, Villanova, Pa. (1995)). Biofilm assays using identified compounds were conducted as previously described (Richard et al., Eukaryot Cell, 4:1493-1502 (2005)). The biofilm dry mass was determined by drying the silicone squares in a chemical hood, and weighing the resulting biofilm mass subtracting the previously weighed mass of the silicone square. Biofilm pictures were captured using a confocal laser microscope (TCS NT, Leica Microsystems). Cells were grown at 30° C., exposed to PS for 30 min, and then washed with PBS.
smiles,measurement,setting,value
C/C=C(/C)C(=O)O[C@H]1CC(C)(C)C[C@H]2C3=CCC4[C@@]5(C)CC[C@H](O[C@@H]6O[C@H](C(=O)O)[C@@H](O[C@@H]7O[C@H](CO)[C@H](O)[C@H](O)[C@H]7O[C@@H]7O[C@H](CO)[C@@H](O)[C@H](O)[C@H]7O)[C@H](O)[C@H]6OC6O[C@@H](C)[C@H](O)[C@@H](O)[C@H]6O)C(C)(C)C5CC[C@@]4(C)[C@]3(C)C[C@@H](O)[C@@]12CO (some centres unmarked) [A19],MIC in vitro,"[1]; co-inoculation assay, two-fold serial dilutions, C. albicans DAY185",26.5 µg/mL
same,in vitro growth of C. albicans,[1]; screen / dose response,completely inhibited
same,maximum nematode survival,"C. albicans; dose response, C. albicans-infected C. elegans",80%
same,EC50 in vivo,C. albicans; dose that resulted in 50% survival of C. albicans-infected nematodes,26.5 µg/mL
same,hemolytic activity,sheep erythrocytes,no hemolytic activity
same,toxicity to the nematode,C. elegans,none of the concentrations used in the dose response experiment showed signs of toxicity
same,biofilm formation,C. albicans biofilm,able to inhibit biofilm formation
same,MIC,C. albicans strains; C. albicans DAY185,32 µg/mL
same,MIC,C. albicans strains; echinocandin-resistant strain A15,16 µg/mL
same,MIC,C. albicans strains; fluconazole-resistant strain 95-120,32 µg/mL
same,MIC,C. albicans strains; fluconazole-resistant strain 98-145,32 µg/mL

# Source: patent publication US8987217B2, “Modified saponins for the treatment of fungal infections” (The General Hospital Corporation, priority 2010, dated 2015)
